Data: US20070166414A1, “METHOD FOR ENHANCING TAMOXIFEN EFFICACY AS A CANCER THERAPEUTIC” (priority 2006, published 2007)
“Also recorded” adds a separate entry of the source.

How the values were obtained:
[1] = test system: DMBA-induced rat mammary carcinogenesis; experiment: Chemoprevention study: DMBA-induced mammary tumors in rats fed experimental diets; conditions: for Survival (%): n=20; for Final tumor incidence: n=20, 114 days, * P<0.05, ** P<0.01 vs control (Fisher's exact test); for Latency (P-: P-value vs +control (DMBA) group, unpaired t-test; for Tumor burden (average tumor weight per group): in words, vs control (FIG. 2b)
Protocol: Chemoprevention Study. The diets were formulated by Harlan-Teklad (Madison, Wis. USA) to contain approximately the same amounts of protein, fat, and carbohydrates. The basal diet AIN-76A is free of soy products. The diets were also adjusted to contain similar amounts of methionine, cystine, and choline because these nutrients have been reported to affect mammary carcinogenesis. Daidzein and genistein were added in the basal diets as necessary (Table 1), at 140 and 105 mg/Kg of diet respectively. The selected isoflavone concentrations were based on the amounts present in the well-tolerated 16% (w/w) S PI diet (13). The tam oxifen dose of 0.125 mg/Kg diet was selected based on a previous study (24).
Virgin female Sprague-Dawley rats at 35 days of age were randomized by weight into 5 groups (20 rats per group) and fed basal AIN-76A diet. At 43 days of age, all but the control groups received basal diet supplemented with the appropriate test agents. After an additional week the animals received a single dose (12.5 mg) of DMBA intragastrically in sesame oil.
During the experimental period, the animals were weighed weekly. Palpation of mammary tumors began four weeks after animals received DMBA and continued until termination of the study. The date of appearance and location of every palpable tumor were recorded. Rats were observed daily to assess their general health. Rats were sacrificed by CO2 asphyxiation. Mammary tumors were coded by location, removed from the rat, and weighed. Sections of normal mammary tissue were also taken and either flash frozen in liquid nitrogen or formalin-fixed for paraffin embedding. The experiment and protocol was approved and performed in compliance with relevant laws and institutional guidelines according to the Animal Care Committee (01-142) and Animal Welfare Assurance (A3460.01) at the University of Illinois at Chicago.
Statistical analysis. A significant inhibition of tumor induction as achieved by administration of an inhibitor was defined as a statistically significant decrease (at 5% level) in tumor incidence, multiplicity, or latency period. Statistical comparison of tumor latency between groups was by unpaired t-test. The statistical significance of differences between mean tumor multiplicities was assessed using analysis of variance (ANOVA), and the Armitage'stest for trends in proportions (25). Tumor incidence rates were generated by the life table method, and compared by (one tailed) log-rank analysis (25).

[2] = test system: proliferating cell nuclear antigen (PCNA); experiment: PCNA staining of endometrial tissue; type: in vivo, female rats; conditions: endometrium gland and stroma, diet 28 and 185 days, vs basal diet
Protocol: (§1) Four groups of female rats were fed the basal AIN-76A diet supplemented with: 1) vehicle (control), (2) tamoxifen (0.125 mg/Kg), (3) daidzein (140 mg/Kg), (4) tamoxifen (0.125 mg/Kg) plus daidzein (140 mg/Kg) combination. Rats were sacrificed at either 28 days (short term exposure) or 185 days (long term exposure) after diet initiation, and the endometrium was removed and processed for immunohistochemical and biochemical evaluations.

endometrium DNA damage = experiment: DNA damage in endometrium by comet assay; type: in vivo, female rats; conditions: diet 28 or 185 days, vs basal diet
Protocol: as §1

PTEN = PTEN staining of endometrial tissue; type: in vivo, female rats; conditions: endometrium, diet 28 and 185 days
Protocol: as §1

[3] = LC-MS analysis of serum isoflavone levels; parameters: species or system female rats; conditions: rat, in vivo
Protocol: LC-MS analysis of isoflavone levels. Serum isoflavone levels of animals on the diets for four weeks without DMBA treatment were analysed. Blood was collected by orbital bleeding. Serum (400 μL) from each sample was transferred into a 2-mL Eppendorf tube. To each tube, 100 μL of 1 M (pH 5.0) buffer was added followed by vortex mixing, then 40 μL sulphatase (50 mg/mL, Sigma # S-3009) enzyme solution was added. After shaking, the mixture was incubated overnight in a 37° C. water bath (>17 h). The enzymatic hydrolysis was stopped by adding 1 mL ice-cold ethanol/acetonitrile (1:1; v/v), mixed and centrifuged at 4° C. for 15 minutes (10,000 rpm). The supernatant was removed and evaporated to dryness under vacuum. The resulting residue was reconstituted with 150 μL internal standard solution, and three aliquots (15 μL each) were analysed using LC-MS (HP 1100 LC-MS D) over an Xterra RP-18 column (2.1×100 mm, 3.5 μm). The mobile phase was 0.1% (v/v) formic acid followed by acetonitrile (containing 0.1% (v/v) formic acid). Elution was at 200 μL/min. The MSD was operated in negative electrospray ionisation mode with selected ion monitoring of m/z 253 for daidzein and internal standard (chrysin), m/z 269 for genistein, and m/z 241 for equol. Three to four samples from each group were analysed and resulting values are mean± SD.

[4] = test system: 8-oxo-deoxyguanosine (8-oxo-dG); experiment: LC-UV-MS-MS quantification of 8-oxo-dG (oxidative DNA damage) in normal mammary glands; type: in vivo, female Sprague-Dawley rats; conditions: in words, vs +control (DMBA); FIG. 3
Protocol: DNA Hydrolysis. DNA was extracted from normal mammary tissue from six different rats from each group and dissolved in water at ˜2 mg/mL. Aliquots (50-μL) containing ˜100 μg of DNA were mixed with 50 μL of buffer (50 mM ammonium acetate, 0.2 mM ZnCl2, pH 5.3), 10 μL of nuclease P1 (0.4 unit/μL), and 8 μL of alkaline phosphatase (1 unit/μL in 10 mM Tris pH 7.4) and incubated at 37° C. for 30 minutes. […] Bedford, Mass. USA). The solution was centrifuged for 15 minutes at 12,000 rpm and 4° C. just before LC-UV-MS-MS analysis. LC-UV-MS-MS Quantification of Oxidized Nucleosides. The HPLC system consisted of a ThermoFinnigan (San Jose, Calif. USA) Surveyor MS pump coupled with an autosampler, a PDA detector and a YMC (Wilmington, N.C. USA) ODS-AQ C18 column (2.0×250 mm, 5 μm), and guard column (4.0×20 mm). Absorbance detection at 240-290 nm was used for on-line HPLC quantification of dG and dC in the DNA hydrolysate, and a standard curve was prepared using standard solutions of dG and dC in the initial mobile phase. […] For DNA oxidation, the solvent system consisted of water/methanol 90:10 (v/v) at the start point and a linear gradient from 10 to 25% (v/v) methanol over 0-25 min. […] Selected reaction monitoring (SRM) was carried out using a TSQ Quantum triple quadruple mass spectrometer equipped with negative ion (for DNA oxidation) electrospray ionisation. Nitrogen was used as the sheath gas and auxiliary gas at 25 and 10 arbitrary units, respectively. The spray voltage was […]. Collision-induced dissociation (CID) was carried out using argon at 1.0-1.5 mTorr with the collision energy of 10-20 V. The span time per ion channel was 0.5 seconds during SRM. For 8-oxo-deoxyguanosine (8-oxo-dG), m/z 282>192 was selected as SRM (m/z 297>204 for the isotopically labelled internal standard). For 5-MedC, m/z 242>126 was selected as SRM (m/z 245>129 for the isotopically labelled internal standard).

[5] = test system: implanted oestrogen-dependent MCF-7 cells; conditions: athymic mice; Cancer Research 62: 2474-2477; cited from earlier work
[6] = LC-MS analysis of serum isoflavone levels; type: in vivo, female rats; conditions: diet for four weeks, no DMBA; 3-4 rats per group; ± SEM
[7] = female, Sprague-Dawley, 4 weeks

Row | SMILES | Survival (%) ([1]; DMBA-exposed rats on diet) | Final tumor incidence ([1]; DMBA-exposed rats on diet) | Latency (P- [1] | Tumor burden (average tumor weight per group) [1] | Mean body weight ([1]; rat, in vivo) | Mean serum level of DAI (daidzein) [3, 7] [ng/mL] | Mean serum level of Equol [3, 7] [ng/mL] | Mean serum level of GEN (genistein) [3, 7] [ng/mL] | Mean serum level of Equol [3] | Mean serum level of GEN (genistein) [3] | 8-oxo-dG levels (ratio 8-oxo-dG/dG) in mammary glands [4] | also measured
1 | O=c1c(-c2ccc(O)cc2)coc2cc(O)ccc12 [DAI, 7-hydroxy-3-(4-hydroxyphenyl)-4H-1-benzopyran-4-one] | 95 | 85 | 0.322 | reduced tumor burden as effectively as tamoxifen | 99.2 | 3.6 ± 0.9 | 115.0 ± 20.6 | 1.2 ± 4.7 | very high concentrations | very low levels | suppressed the levels of 8-oxo-dG equal to those of the group never exposed to DMBA | PCNA expression ([2]; listed as daidzein): increased expression of PCNA; PCNA expression ([2]; listed as diadzein): increased PCNA; DNA damage (comet assay) (endometrium DNA damage; listed as Daidzein): no damaging effect; DNA damage (comet assay) (endometrium DNA damage; listed as diadzein): did not affect the level of DNA damage; PTEN expression (PTEN; listed as daidzein): reduction in PTEN expression; PTEN expression (PTEN; listed as diadzein): reduced PTEN expression
2 | O=c1c(-c2ccc(O)cc2)coc2cc(O)cc(O)c12 [GEN, genistein] | 95 | 85 | 0.326 | ineffective | – | – | – | – | – | – | ineffective | Effect on tamoxifen inhibition of growth of implanted MCF-7 cells [5]: negated the inhibitory effect of tamoxifen; Mean serum level of DAI (daidzein) [6]: very low levels; Mean serum level of Equol [6]: not detectable; Mean body weight ([1]; DMBA-exposed rats on diet, control = 100.0): 100.7
3 | CC/C(=C(\c1ccccc1)c1ccc(OCCN(C)C)cc1)c1ccccc1 [TAM, tamoxifen] | 90 | 73* | 0.013 | – | 94.4 | 0.2 ± 0.0 | 0.0 | 0.8 ± 0.1 | not detectable | very low levels | ineffective | Increase of tumor latency over the control value ([1]; compared to positive control): 46%; PCNA expression [2]: increased expression of PCNA; also recorded: increased proliferating cell nuclear antigen (PCNA) expression; DNA damage (comet assay) (endometrium DNA damage; listed as Tamoxifen): significantly increased DNA damage; DNA damage (comet assay) (endometrium DNA damage; listed as tamoxifen): increased DNA damage; PTEN expression (PTEN): reduction in PTEN expression; also recorded: reduced PTEN expression; Mean serum level of DAI (daidzein) [3]: very low levels
